In ChEMBL document CHEMBL1208702, “Use of 2-[(18)F]fluoroethylazide for the Staudinger ligation - Preparation and characterisation of GABA(A) receptor binding 4-quinolones” (Bioorg Med Chem Lett, 2010):

Legend:
Spleen [1] = assay: Biodistribution in iv dosed Sprague-Dawley rats spleen after 30 mins by gamma counter; format: ADME, organism-based; details: rat, in vivo, 0.5 h
Kidney [2] = assay: Biodistribution in iv dosed Sprague-Dawley rats kidneys after 10 mins by gamma counter; format: ADME, organism-based; details: rat, in vivo
[3] = Biodistribution in iv dosed Sprague-Dawley rats stomach after 10 mins by gamma counter; format: ADME, organism-based; details: rat, in vivo
[4] = Biodistribution in iv dosed Sprague-Dawley rats fat after 60 mins by gamma counter; format: ADME, organism-based, Adipose tissue; details: rat, in vivo, 1 h
[5] = Biodistribution in iv dosed Sprague-Dawley rats stomach after 30 mins by gamma counter; format: ADME, organism-based; details: rat, in vivo, 0.5 h
Brain [6] = assay: Biodistribution in iv dosed Sprague-Dawley rats brain after 0.5 min by gamma counter; format: ADME, organism-based; details: rat, in vivo
Kidney [7] = assay: Biodistribution in iv dosed Sprague-Dawley rats kidneys after 60 mins by gamma counter; format: ADME, organism-based; details: rat, in vivo, 1 h
Brain [8] = assay: Biodistribution in iv dosed Sprague-Dawley rats brain after 10 mins by gamma counter; format: ADME, organism-based; details: rat, in vivo
Lung [9] = assay: Biodistribution in iv dosed Sprague-Dawley rats lung after 2 mins by gamma counter; format: ADME, organism-based; details: rat, in vivo
[10] = Biodistribution in iv dosed Sprague-Dawley rats fat after 30 mins by gamma counter; format: ADME, organism-based, Adipose tissue; details: rat, in vivo, 0.5 h
[11] = Biodistribution in iv dosed Sprague-Dawley rats bladder and urine after 30 mins by gamma counter; format: ADME, organism-based; details: rat, in vivo, 0.5 h
[12] = Drug uptake in low GABAA expression areas of Wistar rat brain prefrontal cortex at 0.1 MBq/ml after 60 mins by autoradiographic analysis; format: ADME, tissue-based; details: in vivo, 1 h
[13] = Biodistribution in iv dosed Sprague-Dawley rats bladder and urine after 2 mins by gamma counter; format: ADME, organism-based; details: rat, in vivo
Heart [14] = assay: Biodistribution in iv dosed Sprague-Dawley rats heart after 0.5 min by gamma counter; format: ADME, organism-based; details: rat, in vivo
Spleen [15] = assay: Biodistribution in iv dosed Sprague-Dawley rats spleen after 0.5 min by gamma counter; format: ADME, organism-based; details: rat, in vivo
[16] = Drug uptake in Wistar rat brain thalamus/striatum cortex at 0.1 MBq/ml after 60 mins by autoradiographic analysis; format: ADME, tissue-based; details: in vivo, 1 h
[17] = Biodistribution in iv dosed Sprague-Dawley rats bladder and urine after 10 mins by gamma counter; format: ADME, organism-based; details: rat, in vivo
Lung [18] = assay: Biodistribution in iv dosed Sprague-Dawley rats lung after 0.5 min by gamma counter; format: ADME, organism-based; details: rat, in vivo
Blood [19] = assay: Biodistribution in iv dosed Sprague-Dawley rats blood after 2 mins by gamma counter; format: ADME, organism-based; details: rat, in vivo
Blood [20] = assay: Biodistribution in iv dosed Sprague-Dawley rats blood after 60 mins by gamma counter; format: ADME, organism-based; details: rat, in vivo, 1 h
[21] = Drug uptake in low GABAA expression areas of Wistar rat brain thalamus/striatum cortex at 0.1 MBq/ml after 60 mins by autoradiographic analysis; format: ADME, tissue-based; details: in vivo, 1 h
Heart [22] = assay: Biodistribution in iv dosed Sprague-Dawley rats heart after 30 mins by gamma counter; format: ADME, organism-based; details: rat, in vivo, 0.5 h
[23] = Drug uptake in Wistar rat brain prefrontal cortex olfactory tubercles at 0.1 MBq/ml after 60 mins by autoradiographic analysis; format: ADME, tissue-based; details: in vivo, 1 h
Muscle tissue [24] = assay: Biodistribution in iv dosed Sprague-Dawley rats muscle after 10 mins by gamma counter; format: ADME, organism-based; details: rat, in vivo
Lung [25] = assay: Biodistribution in iv dosed Sprague-Dawley rats lung after 10 mins by gamma counter; format: ADME, organism-based; details: rat, in vivo
Bone [26] = assay: Biodistribution in iv dosed Sprague-Dawley rats bone after 30 mins by gamma counter; format: ADME, organism-based, Bone element; details: rat, in vivo, 0.5 h
Liver [27] = assay: Biodistribution in iv dosed Sprague-Dawley rats liver after 0.5 min by gamma counter; format: ADME, organism-based; details: rat, in vivo
[28] = Biodistribution in iv dosed Sprague-Dawley rats small intestine after 0.5 min by gamma counter; format: ADME, organism-based; details: rat, in vivo
Bone [29] = assay: Biodistribution in iv dosed Sprague-Dawley rats bone after 60 mins by gamma counter; format: ADME, organism-based, Bone element; details: rat, in vivo, 1 h
[30] = Biodistribution in iv dosed Sprague-Dawley rats fat after 0.5 min by gamma counter; format: ADME, organism-based, Adipose tissue; details: rat, in vivo
Bone [31] = assay: Biodistribution in iv dosed Sprague-Dawley rats bone after 2 mins by gamma counter; format: ADME, organism-based, Bone element; details: rat, in vivo
[32] = Biodistribution in iv dosed Sprague-Dawley rats large intestine after 30 mins by gamma counter; format: ADME, organism-based; details: rat, in vivo, 0.5 h
[33] = Drug uptake in high GABAA expression areas of Wistar rat brain prefrontal cortex at 0.1 MBq/ml after 60 mins by autoradiographic analysis; format: ADME, tissue-based; details: in vivo, 1 h
Muscle tissue [34] = assay: Biodistribution in iv dosed Sprague-Dawley rats muscle after 0.5 min by gamma counter; format: ADME, organism-based; details: rat, in vivo
Muscle tissue [35] = assay: Biodistribution in iv dosed Sprague-Dawley rats muscle after 60 mins by gamma counter; format: ADME, organism-based; details: rat, in vivo, 1 h
[36] = Biodistribution in iv dosed Sprague-Dawley rats large intestine after 60 mins by gamma counter; format: ADME, organism-based; details: rat, in vivo, 1 h
[37] = Biodistribution in iv dosed Sprague-Dawley rats bladder and urine after 0.5 min by gamma counter; format: ADME, organism-based; details: rat, in vivo
Liver [38] = assay: Biodistribution in iv dosed Sprague-Dawley rats liver after 60 mins by gamma counter; format: ADME, organism-based; details: rat, in vivo, 1 h

O=C(NCC[18F])c1c[nH]c2ccc(Cc3ccccc3)cc2c1=O
Drug uptake (Spleen [1]): 0.1 %ID | Drug uptake (Kidney [2]): 2.1 %ID | Drug uptake [3]: 1 %ID | Drug uptake [4]: 0.3 %ID | Drug uptake [5]: 0.5 %ID | Drug uptake (Brain [6]): 0.1 %ID | Drug uptake (Kidney [7]): 0.5 %ID | Drug uptake (Brain [8]): 0.1 %ID | Drug uptake (Lung [9]): 1.5 %ID | Drug uptake [10]: 1.7 %ID | Drug uptake [11]: 4.2 %ID | Drug uptake [12]: 76% | Drug uptake [13]: 0 %ID | Drug uptake (Heart [14]): 2 %ID | Drug uptake (Spleen [15]): 0.2 %ID | Drug uptake [16]: 60% | Drug uptake [17]: 0.8 %ID | Drug uptake (Lung [18]): 2.9 %ID | Drug uptake (Blood [19]): 4.2 %ID | Drug uptake (Blood [20]): 0.7 %ID | Drug uptake [21]: 76% | Drug uptake (Heart [22]): 0.2 %ID | Drug uptake [23]: 60% | Drug uptake (Muscle tissue [24]): 27.2 %ID | Drug uptake (Lung [25]): 0.6 %ID | Drug uptake (Bone [26]): 1.5 %ID | Drug uptake (Liver [27]): 14.6 %ID | Drug uptake [28]: 4.7 %ID | Drug uptake (Bone [29]): 1.4 %ID | Drug uptake [30]: 0.6 %ID | Drug uptake (Bone [31]): 3 %ID | Drug uptake [32]: 1.7 %ID | Drug uptake [33]: 78% | Drug uptake (Muscle tissue [34]): 56.1 %ID | Drug uptake (Muscle tissue [35]): 4.6 %ID | Drug uptake [36]: 1.9 %ID | Drug uptake [37]: 0.2 %ID | Drug uptake (Liver [38]): 4.8 %ID
